Measured values reported in patent publication US9351955B2, “Compounds and pharmaceutical compositions thereof for the treatment of cystic fibrosis” (Galapagos NV, priority 2013, dated 2016).

Legend:
Format in all cases: cell-based
CFTR ΔF508 mutant [1] = target: T1, CFTR ΔF508 mutant (Homo sapiens, UniProt P13569, DEL508-508); assay: YFP-halide influx assay for the CFTR-ΔF508 mutation (384 well, CFBE41o- cells, FDSS/μCell); conditions: forskolin 10.67 μM, fluorescence after 36 seconds, read-out: EC50 measured by YFP-halide influx assay for the CFTR-ΔF508
T1 construct: expressed in transfected cells; host or cells: CFBE41o- (adenoviral transduction)
T1 sequence (P13569 with tags, fused parts or gaps DEL508-508): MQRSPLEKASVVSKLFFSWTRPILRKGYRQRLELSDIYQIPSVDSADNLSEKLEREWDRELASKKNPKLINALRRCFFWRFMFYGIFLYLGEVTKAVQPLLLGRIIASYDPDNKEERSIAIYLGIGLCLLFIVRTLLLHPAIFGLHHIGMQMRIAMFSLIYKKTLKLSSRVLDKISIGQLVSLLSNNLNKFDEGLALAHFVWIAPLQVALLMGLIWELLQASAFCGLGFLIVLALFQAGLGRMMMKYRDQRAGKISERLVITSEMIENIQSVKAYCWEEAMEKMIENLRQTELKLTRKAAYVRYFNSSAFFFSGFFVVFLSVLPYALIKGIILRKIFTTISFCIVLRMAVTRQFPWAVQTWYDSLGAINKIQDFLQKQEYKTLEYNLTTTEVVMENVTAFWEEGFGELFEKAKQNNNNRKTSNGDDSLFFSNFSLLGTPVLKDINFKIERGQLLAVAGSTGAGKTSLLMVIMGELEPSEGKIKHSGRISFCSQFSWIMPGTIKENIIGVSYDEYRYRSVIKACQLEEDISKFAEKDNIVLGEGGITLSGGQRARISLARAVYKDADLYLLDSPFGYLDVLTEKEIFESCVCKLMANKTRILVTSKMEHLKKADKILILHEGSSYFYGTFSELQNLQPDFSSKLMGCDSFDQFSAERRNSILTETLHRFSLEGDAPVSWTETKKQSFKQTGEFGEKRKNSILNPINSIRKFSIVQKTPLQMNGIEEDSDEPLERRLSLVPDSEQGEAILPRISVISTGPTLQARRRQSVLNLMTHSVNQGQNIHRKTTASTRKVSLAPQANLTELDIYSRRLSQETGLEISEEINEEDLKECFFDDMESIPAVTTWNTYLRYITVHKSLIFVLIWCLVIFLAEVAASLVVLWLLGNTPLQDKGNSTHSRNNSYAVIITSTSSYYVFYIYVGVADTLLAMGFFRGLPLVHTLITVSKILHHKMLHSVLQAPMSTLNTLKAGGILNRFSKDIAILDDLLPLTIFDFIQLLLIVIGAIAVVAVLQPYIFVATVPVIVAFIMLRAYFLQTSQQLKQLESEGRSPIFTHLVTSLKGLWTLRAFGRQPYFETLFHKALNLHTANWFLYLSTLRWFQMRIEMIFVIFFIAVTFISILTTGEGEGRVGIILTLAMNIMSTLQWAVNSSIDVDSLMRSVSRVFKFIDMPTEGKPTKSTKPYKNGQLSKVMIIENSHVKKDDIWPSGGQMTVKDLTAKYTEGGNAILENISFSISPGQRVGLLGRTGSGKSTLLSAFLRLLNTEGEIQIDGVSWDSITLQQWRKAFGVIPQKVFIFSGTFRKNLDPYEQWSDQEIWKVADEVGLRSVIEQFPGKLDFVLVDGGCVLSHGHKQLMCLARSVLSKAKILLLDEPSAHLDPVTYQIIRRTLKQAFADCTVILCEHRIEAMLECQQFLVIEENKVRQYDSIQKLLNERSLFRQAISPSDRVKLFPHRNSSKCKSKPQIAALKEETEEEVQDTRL
Procedure, shortened: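 CFBE41o- cells were adenovirally transduced with ΔF508 CFTR and the YFP H148Q/I152L reporter. Cells were then held 24 h at 27 °C or treated 24 h at 37 °C with a CFTR modulator. Iodide-induced quench was recorded for 2 min, and EC50 was derived from 1−F/F0 at 36 s against compound concentration.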

CFTR-G178R = target: T2, CFTR-G178R (Homo sapiens, UniProt P13569, G178R); assay: YFP-halide influx assay for the CFTR-G178R; conditions: read-out: EC50 measured by YFP-halide influx assay for the CFTR-G178R
T2 construct: expressed in transfected cells
T2 sequence (P13569 whole entry G178R): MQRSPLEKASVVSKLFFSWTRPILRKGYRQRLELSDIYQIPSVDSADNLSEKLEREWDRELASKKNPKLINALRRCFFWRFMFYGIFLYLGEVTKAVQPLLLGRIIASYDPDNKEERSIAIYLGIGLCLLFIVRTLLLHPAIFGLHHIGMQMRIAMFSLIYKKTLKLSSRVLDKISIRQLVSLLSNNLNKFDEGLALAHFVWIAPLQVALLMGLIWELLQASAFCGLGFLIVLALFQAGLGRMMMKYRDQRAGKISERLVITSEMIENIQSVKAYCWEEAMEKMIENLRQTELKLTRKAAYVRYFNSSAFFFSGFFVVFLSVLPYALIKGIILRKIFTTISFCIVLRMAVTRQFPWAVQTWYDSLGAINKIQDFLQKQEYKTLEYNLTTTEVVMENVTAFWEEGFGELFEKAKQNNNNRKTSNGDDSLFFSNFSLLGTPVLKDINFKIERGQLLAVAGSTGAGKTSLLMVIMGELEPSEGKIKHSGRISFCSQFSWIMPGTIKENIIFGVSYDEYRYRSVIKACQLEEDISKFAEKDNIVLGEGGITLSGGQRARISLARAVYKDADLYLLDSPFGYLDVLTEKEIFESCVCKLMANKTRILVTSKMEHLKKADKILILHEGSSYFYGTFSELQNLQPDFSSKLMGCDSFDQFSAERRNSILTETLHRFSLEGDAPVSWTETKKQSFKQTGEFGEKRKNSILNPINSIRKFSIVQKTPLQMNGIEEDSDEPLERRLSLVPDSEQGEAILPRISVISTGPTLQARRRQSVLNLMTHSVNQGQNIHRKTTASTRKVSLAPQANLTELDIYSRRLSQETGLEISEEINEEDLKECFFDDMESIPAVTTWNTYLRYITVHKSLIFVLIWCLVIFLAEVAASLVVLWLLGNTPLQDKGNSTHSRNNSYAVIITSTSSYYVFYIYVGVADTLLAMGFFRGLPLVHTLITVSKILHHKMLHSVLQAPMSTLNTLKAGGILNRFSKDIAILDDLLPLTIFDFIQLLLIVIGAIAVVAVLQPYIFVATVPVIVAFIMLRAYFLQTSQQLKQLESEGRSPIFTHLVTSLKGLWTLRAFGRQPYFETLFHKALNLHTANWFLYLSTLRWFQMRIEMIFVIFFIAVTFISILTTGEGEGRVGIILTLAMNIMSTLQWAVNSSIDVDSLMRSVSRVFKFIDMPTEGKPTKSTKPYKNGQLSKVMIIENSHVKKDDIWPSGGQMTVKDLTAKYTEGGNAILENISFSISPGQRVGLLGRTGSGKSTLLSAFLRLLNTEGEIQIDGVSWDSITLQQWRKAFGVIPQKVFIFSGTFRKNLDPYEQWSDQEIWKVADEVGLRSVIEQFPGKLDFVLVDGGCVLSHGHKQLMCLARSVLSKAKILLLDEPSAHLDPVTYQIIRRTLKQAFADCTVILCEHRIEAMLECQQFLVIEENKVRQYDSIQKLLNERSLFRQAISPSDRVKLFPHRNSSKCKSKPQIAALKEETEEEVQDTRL
Description: (§1) The YFP halide influx assay measures the functionality of the cystic fibrosis Transmembrane Conductance regulator (CFTR) channels. The assay is used to evaluate the capacity of compounds to increase the channel opening of existing mutant CFTR channels in the membrane. It makes use of the observation that the yellow fluorescent protein (YFP) variant YFP H148Q, I152L, F47L has its fluorescence substantially quenched by halide ions like Cl^− and I^−. (Galietta et al., 2001)
(§2) For this purpose, HEK293-cells are seeded in 96 well plates. During seeding, the cells are reverse-transfected with plasmid vectors that direct the expression of the CFTR G551D mutant and of the YFP reporter. Cells are incubated at 37° C., 5% CO2 for 24 hours so as to allow for sufficient expression of the CFTR protein.
(§3) The I^−-induced quenching of fluorescence is recorded immediately after injection of I^− for 7 seconds. The capacity of a compound to increase the channel opening is directly correlated with the decrease in fluorescence, and is expressed as (1−(fluorescence after 7 seconds (F)/fluorescence before injection (F0))) and an EC50 can be derived from a (1−F/F0) vs compound concentration plot.
(§4) Similar YHA assays were developed for other channel gating defective or channel conductance defective CFTR mutants to determine effect of compound on channel activity. Examples of mutants are G178R, G1349D, S549N, R117H, R334W. This assay is also used for additional class I CFTR mutants, including G542X, W1282X; class II mutants including N1303K, and for class III mutants including S1251N; or wild-type CFTR.

CFTR-R117H = target: T3, CFTR-R117H (Homo sapiens, UniProt P13569, R117H); assay: YFP-halide influx assay for the CFTR-R117H; conditions: CFTR-R117H mutant; read-out: EC50 measured by YFP-halide influx assay for the CFTR-R117H
T3 construct: expressed in transfected cells
T3 sequence (P13569 whole entry R117H): as the sequence (P13569 whole entry G178R) above, with R117H, R178G counted along it
Description: as §1, §2, §3, §4

CFTR-S549N = target: T4, CFTR-S549N (Homo sapiens, UniProt P13569, S549N); assay: YFP-halide influx assay for the CFTR-S549N; conditions: CFTR-S549N mutant; read-out: EC50 measured by YFP-halide influx assay for the CFTR-S549N
T4 construct: expressed in transfected cells
T4 sequence (P13569 whole entry S549N): as the sequence (P13569 whole entry G178R) above, with R178G, S549N counted along it
Description: as §1, §2, §3, §4

CFTR-G1349D = target: T5, CFTR-G1349D (Homo sapiens, UniProt P13569, G1349D); assay: YFP-halide influx assay for the CFTR-G1349D; conditions: CFTR-G1349D mutant; read-out: EC50 measured by YFP-halide influx assay for the CFTR-G1349D
T5 construct: expressed in transfected cells
T5 sequence (P13569 whole entry G1349D): as the sequence (P13569 whole entry G178R) above, with R178G, G1349D counted along it
Description: as §1, §2, §3, §4

CFTR ΔF508 mutant [2] = target: T1, CFTR ΔF508 mutant; assay: YFP-halide influx assay for the CFTR-ΔF508 mutation (96 well, CFBE41o- cells); conditions: compounds of the invention, 96 well, forskolin 10.67 μM, read-out: EC50 measured by YFP-halide influx assay for the CFTR-ΔF508
Description: 6.1. YFP-Halide Influx Assay for the CFTR-ΔF508 Mutation
as §1, with “channels in the cystic fibrosis bronchial epithelium cell line CFBE41o-.” for “channels.”, “open probability” for “channel opening”, “existing” for “existing mutant”, “I152L” for “I152L, F47L”, “2001; Nagai et al., 2002)” for “2001)”
For this purpose, CFBE410-cells are seeded in 96 well plates (6000 CFBE cells/well). One day after seeding, the CFBE cells are transduced with adenoviral vectors that direct the expression of the CFTR ΔF508 mutant and of the YFP reporter. Cells are incubated at 27° C., 5% CO2 for 24 hours so as to allow for the proper folding and migration to the membrane of the CFTR channel or treated with a CFTR modulator during 24 h at 37° C.
as §3, with “[…]” for “I^−-induced”, “(1-(fluorescence” for “(1−(fluorescence”

CFTR G551D mutant = target: T6, CFTR G551D mutant (Homo sapiens, UniProt P13569, G551D); assay: YFP-halide influx assay for the CFTR-G551D mutation (HEK293 cells); conditions: HEK293 cells expressing CFTR G551D and YFP reporter; forskolin 10.67 μM; read-out: EC50 measured by YFP-halide influx assay for the CFTR-G551D
T6 construct: expressed in transfected cells; host or cells: HEK293 (reverse transfection with plasmids)
T6 sequence (P13569 whole entry G551D): as the sequence (P13569 whole entry G178R) above, with R178G, G551D counted along it
Procedure, shortened: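 HEK293 cells reverse-transfected with CFTR G551D and halide-sensitive YFP, expressed 24 h at 37 °C. Iodide-induced fluorescence quench recorded for 7 s after I^− injection; response as 1−F/F0, EC50 from concentration plot.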

CFTR ΔF508 = target: T7, CFTR ΔF508 (Homo sapiens, UniProt P13569, DEL508-508); assay: TECC assay, primary bronchial epithelial cells from CF patients homozygous for CFTR ΔF508; conditions: primary bronchial epithelial cells, CFTR ΔF508; several values in a cell = repeat determinations
T7 construct: host or cells: primary bronchial epithelial cells from CF patients homozygous for ΔF508, pre-treated with VX809
T7 sequence (P13569 with tags, fused parts or gaps DEL508-508): as the sequence (P13569 with tags, fused parts or gaps DEL508-508) above
Method: 7.2.1. Primary Bronchial Epithelial Cells Protocol
The TECC (Tranepithelial Clamp Circuit, EP-design) assay measures the functionality of the cystic fibrosis Transmembrane Conductance regulator (CFTR) by measuring the short circuit current (ISC) generated over the basolateral and apical membrane of lung epithelial cells. In TECC the transepithelial potential PD and transepithelial resistance (Rt) are measured in an open circuit and transformed to ISC using Ohm's law. 24 wells can be measured simultaneously allowing a higher throughput compared to Ussing chambers.
For this purpose, bronchial epithelial cells isolated from CF patients homozygous for the CFTR ΔF508 mutation (hAEC-CF, Epithelix) are plated on type IV collagen-coated Transwell supports (Costar). Human airway epithelia are generated by provision of an air-liquid interface for 21 days to form well-differentiated polarized cultures that resemble in vivo pseudo-stratified ciliated epithelium (Fulcher et al., 2005). In the case of the homozygous ΔF508 CFTR samples, the differentiated cells are treated with 3 μM VX809 (2626 South Loop West, Suite 225, Houston, Tex. 77054 USA, Cat n#51565) to allow sufficient expression of properly folded CFTR protein on the membrane (48 hours basolateral treatment and 24 hours apical treatment), prior to electrophysiological recordings. […] G551D/ΔF508, differentiated cells are used as such for the recordings.
Information on the compounds can be retrieved on the homozygous ΔF508 CFTR samples looking at increased CFTR activity when compounds are added in an acute mode or in a chronic mode. On G551D/ΔF508 CFTR heterozygous samples compounds are added in an acute mode to the differentiated cells.
For the acute mode, for electrophysiological recording, the human airway epithelia are mounted in the TECC heating plate for electrophysiological measurement and kept at 37° C. The epithelia are bathed in a NaCl-Ringer solution (120 mM NaCl, 25 mM NaHCO3, 1.2 mM CaCl2, 1.2 mM MgCl2, 0.8 mM KH2PO4, 0.8 mM K2HPO4, pH 7.4, 5 mM glucose) on both the basolateral and apical sides. Apical amiloride is used to inhibit the endogenous ENaC currents while forkolin is applied on both apical and basolateral side to stimulate CFTR. After forskolin triggering, compounds are added on both sides to test their potential for increasing CFTR gating. Measurements are done during a 20 minute timeframe with recordings every 2 minutes. The increase in ISC is used as a measure for the increased CFTR activity, EC50 values can be generated by measuring impact of different concentrations of compound on ISC on primary cells, for this purpose each transwell is treated with a different compound concentration. Inh-172, an inhibitor specific for CFTR, is used to test the specificity of the tested compounds.
For the chronic mode, the differentiated cells are treated with 3 μM VX809 (2626 South Loop West, Suite 225, Houston, Tex. 77054 USA, Cat n#51565) and potentiator compounds at different concentrations (48 hours basolateral treatment and 24 hours apical treatment), prior to electrophysiological recordings. For electrophysiological recording, the human airway epithelia are mounted in the TECC heating plate for electrophysiological measurement and kept at 37° C. […]

SMILES	EC50 (CFTR ΔF508 mutant [1])	EC50 (CFTR-G178R)	EC50 (CFTR-R117H)	EC50 (CFTR-S549N)	EC50 (CFTR-G1349D)	EC50 (CFTR ΔF508 mutant [2])	EC50 (CFTR G551D mutant)	EC50 (CFTR ΔF508)
CC(C)C(O)C(=O)Nc1sc2c(c1C(N)=O)CC(C)(C)OC2(C)C (single isomer, unassigned) [Compound 52, 2-[[2-hydroxy-3-methyl-butanoyl]amino]-5,5,7,7-tetramethyl-4H-thieno[2,3-c]pyran-3-carboxamide]	1.97 nM	39.7 nM	11.4 nM	86.5 nM	60.9 nM			
CC1(C)Cc2c(sc(NC(=O)c3ccc(F)cc3O)c2C(N)=O)C(C)(C)O1 [Compound 21, 2-(4-fluoro-2-hydroxybenzamido)-5,5,7,7-tetramethyl-5,7-dihydro-4H-thieno[2,3-c]pyran-3-carboxamide]	0.71 nM					6.46 nM	57.5 nM	16.3 nM
CC1(C)Cc2c(sc(NC(=O)c3n[nH]cc3C3=CCOCC3)c2C(N)=O)C(C)(C)O1 [Compound 45, N-(3-carbamoyl-5,5,7,7-tetramethyl-4H-thieno[2,3-c]pyran-2-yl)-4-(3,6-dihydro-2H-pyran-4-yl)-1H-pyrazole-3-carboxamide]	29.6 nM	368 nM	1200 nM	1520 nM	325 nM		1140 nM	
CC(C)CC(O)C(=O)Nc1sc2c(c1C(N)=O)CC(C)(C)OC2(C)C (stereo not drawn) [Compound 46, 2-[(2-hydroxy-4-methyl-pentanoyl)amino]-5,5,7,7-tetramethyl-4H-thieno[2,3-c]pyran-3-carboxamide]	2.84 nM	19 nM	24.4 nM	140 nM	58.4 nM		1430 nM	
COCc1[nH]nc(C(=O)Nc2sc3c(c2C(N)=O)CC(C)(C)OC3(C)C)c1Cl [Compound 50, N-(3-carbamoyl-5,5,7,7-tetramethyl-4H-thieno[2,3-c]pyran-2-yl)-4-chloro-5-(methoxymethyl)-1H-pyrazole-3-carboxamide]	10.6 nM	47.4 nM	76.3 nM	105 nM	70.5 nM		288 nM	
COCCOc1cc(C(=O)Nc2sc3c(c2C(N)=O)CC(C)(C)OC3(C)C)n[nH]1 [Compound 55, 5-(2-Methoxy-ethoxy)-1H-pyrazole-3-carboxylic acid (3-carbamoyl-5,5,7,7-tetramethyl-4,7-dihydro-5H-thieno[2,3-c]pyran-2-yl)-amide]	24.5 nM	58.3 nM	38.9 nM	108 nM	74 nM		600 nM	

Further lines, results first:

EC50 (CFTR ΔF508 mutant [1])	EC50 (CFTR-G178R)	EC50 (CFTR-R117H)	EC50 (CFTR-S549N)	EC50 (CFTR-G1349D)	EC50 (CFTR ΔF508 mutant [2])	EC50 (CFTR G551D mutant)	EC50 (CFTR ΔF508)	SMILES
14.4 nM	89.3 nM	116 nM	196 nM	97.7 nM		1170 nM		CCCc1c[nH]nc1C(=O)Nc1sc2c(c1C(N)=O)CC(C)(C)OC2(C)C [Compound 71, N-(3-carbamoyl-5,5,7,7-tetramethyl-4H-thieno[2,3-c]pyran-2-yl)-4-propyl-1H-pyrazole-3-carboxamide]
	82.2 nM							CC1(C)Cc2c(sc(NC(=O)c3ccnn3COP(=O)(O)O)c2C(N)=O)C(C)(C)O1 [Compound 92, [5-[(3-carbamoyl-5,5,7,7-tetramethyl-4H-thieno[2,3-c]pyran-2-yl)carbamoyl]pyrazol-1-yl]methyl dihydrogen phosphate]
24.5 nM		106 nM	291 nM	81.4 nM		1060 nM		CC1(C)Cc2c(sc(NC(=O)c3n[nH]cc3C3COCCO3)c2C(N)=O)C(C)(C)O1 (stereo not drawn) [Compound 95, N-(3-carbamoyl-5,5,7,7-tetramethyl-4H-thieno[2,3-c]pyran-2-yl)-4-(1,4-dioxan-2-yl)-1H-pyrazole-3-carboxamide]
